# Experimental data reported in patent publication US5877210A, “Phosphotyrosine phosphatase inhibitors or phosphotyrosine kinase activators for controlling cellular proliferation” (priority 1995, dated 1999).
# “Also recorded” adds a separate entry of the source.
# How the values were obtained:
# [1] = biological target: T1, PP2A (Homo sapiens, UniProt P67775); assay: Serine/threonine phosphatase PP2A inhibition; assay type: biochemical; conditions: vs CD45 and PTP1B
# T1 construct: purchased Upstate Biotechnology, Lake Placid, N.Y
# [2] = test system: H3347 carcinoma cells; assay: Anti-phosphotyrosine immunoblot; assay type: cell-based, human
# [3] = Tolerability of BMLOV in mice; assay type: in vivo
# [4] = test system: antibody-producing B cells; assay: Class-switching: Ig production by anti-CD40 + IL-4 treated B cells; assay type: cell-based, human
# Description: The effects of BMLOV were assayed on class-switching in antibody-producing B cells. Human B cells producing antibody were treated with anti-CD40 antibody plus IL-4, which increased production of IgE over 10-fold (Table 7). […] In contrast, the production of IgG1 and IgG4 was much less affected, particularly at a dose of 5.6 μM BMLOV. This selective effect is important because the IgG antibody production is an important response to infectious disease. It would be of value to suppress IgE production for the treatment of allergies while maintaining IgG production, particularly in conditions in which an allergy coexists with an infectious disease. A common example is the exacerbation of allergic rhinitis (hay fever) as the result of a respiratory infection.
# [5] = test system: Lyn; assay: Src-family kinase activity from treated Ramos cells; assay type: cell-based, human; conditions: Ramos cells treated with BMLOV for 15 hours
# Description: (§1) Treatment of Ramos cells with BMLOV for 15 hours inhibited the activity of the Src kinases Lyn and Fyn from the cells by approximately 50%.
# [6] = test system: Fyn; assay: as above; assay type: cell-based, human; conditions: Ramos cells treated with BMLOV for 15 hours
# Description: as §1
# [7] = test system: PHA-induced T cell blasts; assay: Ca2+ signaling in PHA T cell blasts; assay type: cell-based, human
# Description: Ca^2+ responses were measured using indo-1 (Molecular Probes, Eugene, Oreg.) and a model 50 HH/2150 flow cytometer (Ortho, Westwood, Mass.) as previously described (P. S. Rabinovitch et al., J. Immunol. 137:952-961 (1986)). The histograms were analyzed by programs (Cicero, Cytomation Inc., Ft. Collins, Colo.) that calculate the mean indo-1 violet/blue fluorescence ratio versus time. There are 100 data points on the X (time) axis for all flow cytometric data.
# In the experiments shown in FIG. 25, human PHA-induced T cell blasts were treated overnight with the indicated concentrations of BMLOV. In Panel A, the baseline level of intracellular free Ca^2+ ([Ca^2+ ]i) was established for 1 min, and then the cells were treated with biotinylated anti-CD3 mAb (G19-4). After 5 min avidin was added (gap in the trace) to cross-link the antibody. In Panel B, assays were performed as in Panel A, but in the presence of 5 mM EGTA. […] In the experiments shown in FIG. 26, cells were treated 16 h with BMLOV and then stimulated with anti-CD3 mAb G19-4 for 5 min. Cells were then washed and resuspended in fresh media at equal concentrations of BMLOV at 37° C. Cells were then harvested and lysed at times following the initiation of CD3 stimulation as indicated. Antibody binding in immunoblots was detected by ECL.
# [8] = test system: REH, Ramos, CEM, Jurkat, HL-60, and THP-1; assay: [3H]thymidine incorporation, cell line panel (FIG. 17); assay type: cell-based; conditions: 5 μM pV(phen), 5 days
# Description: Similar results are shown in FIG. 17 for the cell lines REH, Ramos, CEM, Jurkat, HL-60, and THP-1. Cells were treated 5 days with the amount of inhibitor indicated and [^3 H]-thymidine incorporation was then measured to determine proliferation. The percent inhibition was calculated relative to untreated controls. Results are shown for three concentrations of BMLOV (5 μM, 10 μM, and 25 μM and 5 μM of pV(phen)).
# [9] = test system: HCT116(VP)35; assay: In vitro cytotoxicity, XTT assay
# Description: (§2) The vanadate compound pV(phen) was tested for in vitro cytotoxicity in a panel of human tumor cell lines. The cell lines used were a human colon carcinoma cell line, HCT116, and two drug-resistant sublines. The HCT116(VM46) subline was selected for resistance to VM-26 and expresses the multidrug resistant (MDR) phenotype including resistance to lipophilic anticancer drugs such as paclitaxel, VP-16, VM-26, doxorubicin, and vinblastine. This cell line overexpresses P-glycoprotein, a cell surface drug efflux pump, which limits accumulation of anticancer drugs such as the ones mentioned above. […] The compound pV(phen) was also evaluated in the ovarian carcinoma cell line A2780 and a paclitaxel resistant subline A2780-Tax22.
# (§3) In the cytotoxicity assays, cells were plated and 24 hr later drugs were added and serially diluted. After 72 hr of continuous drug exposure, the tetrazolium dye XTT was added. A dehydrogenase enzyme in live cells reduces the XTT to a form that absorbs light at 450 nm which can be quantitated spectrophotometrically. The greater absorbance, the greater is the number of live cells. The results are expressed as a IC50 which is a drug concentration required to inhibit cell proliferation (i.e., absorbance at 450 nm) to 50% of that of untreated control cells.
# [10] = test system: HCT116(VM)46; assay: In vitro cytotoxicity, XTT assay
# Description: as §2, §3
# [11] = test system: A2780/Tax22; assay: In vitro cytotoxicity, XTT assay
# Description: as §2, §3
# [12] = Anti-CD40 + IL-4 + 0.002 μM BMLOV
# [13] = Anti-CD40 + IL-4 + 0.008 μM BMLOV
# [14] = Anti-CD40 + IL-4 + 0.02 μM BMLOV
# [15] = Anti-CD40 + IL-4 + 0.07 μM BMLOV
# [16] = Anti-CD40 + IL-4 + 0.2 μM BMLOV
# [17] = Anti-CD40 + IL-4 + 0.6 μM BMLOV
# [18] = Anti-CD40 + IL-4 + 1.9 μM BMLOV
# [19] = Anti-CD40 + IL-4 + 5.6 μM BMLOV
# T1 sequence (P67775 whole entry): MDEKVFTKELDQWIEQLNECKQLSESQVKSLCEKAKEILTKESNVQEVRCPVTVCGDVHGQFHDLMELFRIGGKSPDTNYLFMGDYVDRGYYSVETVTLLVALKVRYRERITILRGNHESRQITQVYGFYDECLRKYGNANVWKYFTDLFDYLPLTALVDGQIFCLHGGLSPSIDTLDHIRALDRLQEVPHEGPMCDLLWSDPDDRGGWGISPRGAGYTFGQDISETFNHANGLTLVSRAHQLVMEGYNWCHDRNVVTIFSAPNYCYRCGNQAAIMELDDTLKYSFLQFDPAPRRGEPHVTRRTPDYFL
smiles,measurement,setting,value
"Cc1occc(=O)c1[O-].Cc1occc(=O)c1[O-].[O]=[V+2] [BMLOV, Bis(maltolato)oxovanadium (IV)]",concentration for similar inhibition relative to phosphotyrosine phosphatases,[1],over 100 fold
same,induction of tyrosine phosphorylation,[2],weakly induce tyrosine phosphorylation
same,tolerability,[3]; 1.6 mM BMLOV in drinking water continuously for 10 days,no overt ill effects
same,tolerability,[3]; intraperitoneal doses up to 1 mg and oral doses up to 1.6 mg,without ill effects except for some temporary lethargy
same,"increased production of IgE, in words",[4]; 5.6 or 17 μM BMLOV,markedly inhibited
same,[Ig] IgE,[4]; [12],3.9 ng/mL
same,[Ig] IgG1,[4]; [12],450 ng/mL
same,[Ig] IgG4,[4]; [12],1.7 ng/mL
same,[Ig] IgM,[4]; [12],20.4 ng/mL
same,[Ig] IgE,[4]; [13],2.6 ng/mL
same,[Ig] IgG1,[4]; [13],450 ng/mL
same,[Ig] IgG4,[4]; [13],1.1 ng/mL
same,[Ig] IgM,[4]; [13],20.4 ng/mL
same,[Ig] IgE,[4]; [14],4.5 ng/mL
same,[Ig] IgG1,[4]; [14],390 ng/mL
same,[Ig] IgG4,[4]; [14],1.3 ng/mL
same,[Ig] IgM,[4]; [14],19.2 ng/mL
same,[Ig] IgE,[4]; [15],5.1 ng/mL
same,[Ig] IgG1,[4]; [15],450 ng/mL
same,[Ig] IgG4,[4]; [15],2.7 ng/mL
same,[Ig] IgM,[4]; [15],12.0 ng/mL
same,[Ig] IgE,[4]; [16],7.5 ng/mL
same,[Ig] IgG1,[4]; [16],495 ng/mL
same,[Ig] IgG4,[4]; [16],1.2 ng/mL
same,[Ig] IgM,[4]; [16],13.8 ng/mL
same,[Ig] IgE,[4]; [17],5.7 ng/mL
same,[Ig] IgG1,[4]; [17],480 ng/mL
same,[Ig] IgG4,[4]; [17],1.3 ng/mL
same,[Ig] IgM,[4]; [17],17.4 ng/mL
same,[Ig] IgE,[4]; [18],3.0 ng/mL
same,[Ig] IgG1,[4]; [18],450 ng/mL
same,[Ig] IgG4,[4]; [18],2.7 ng/mL
same,[Ig] IgM,[4]; [18],15.6 ng/mL
same,[Ig] IgE,[4]; [19],1.2 ng/mL
same,[Ig] IgG1,[4]; [19],480 ng/mL
same,[Ig] IgG4,[4]; [19],1.8 ng/mL
same,[Ig] IgM,[4]; [19],18.6 ng/mL
same,[Ig] IgE,[4]; Anti-CD40 + IL-4 + 17 μM BMLOV,0.8 ng/mL
same,[Ig] IgG1,[4]; Anti-CD40 + IL-4 + 17 μM BMLOV,450 ng/mL
same,[Ig] IgG4,[4]; Anti-CD40 + IL-4 + 17 μM BMLOV,0.8 ng/mL
same,[Ig] IgM,[4]; Anti-CD40 + IL-4 + 17 μM BMLOV,18.0 ng/mL
same,[Ig] IgE,[4]; Anti-CD40 + IL-4 + 50 μM BMLOV,0.2 ng/mL
same,[Ig] IgG1,[4]; Anti-CD40 + IL-4 + 50 μM BMLOV,60 ng/mL
same,[Ig] IgG4,[4]; Anti-CD40 + IL-4 + 50 μM BMLOV,0.5 ng/mL
same,[Ig] IgM,[4]; Anti-CD40 + IL-4 + 50 μM BMLOV,5.1 ng/mL
same,inhibition of kinase activity,[5],approximately 50%
same,inhibition of kinase activity,[6],approximately 50%
same,Ca2+ signals from crosslinking CD3 alone or with CD2 and CD4,[7]; 25-50 μM BMLOV,prolong Ca^2+ signals
same,basal calcium levels,"[7]; 50 to 100 μM BMLOV, fifteen hours",markedly enhance basal calcium levels
same,effect on CD28 Ca2+ signals,[7]; PHA T cell blasts,marked inhibition
same,Ca2+ signaling in T cells,"[7]; anti-CD3 cross-linking, BMLOV overnight (25 μM elsewhere in the source)",detectably stimulated Ca^2+ signaling; also recorded: increased and prolonged
"[Na+].[O]=[V-]12([O][O]1)[O][O]2.c1cnc2c(c1)ccc1cccnc12 [pV(phen), sodium (1,10-phenanthroline) oxodiperoxovanadium (V)]","inhibition of proliferation, in words",[8],inhibits all cell types studied
same,IC50,"[9]; hct116(vp35) cells, 72 h",7.2 µM
same,fold resistance relative to parental cell line,"[9]; vs HCT116, 4320 min",0.9 fold
same,IC50,"[10]; hct116(vm46) cells, 72 h",2 µM
same,fold resistance relative to parental cell line,"[10]; vs HCT116, 4320 min",0.2 fold
same,IC50,"[11]; a2780/tax22 cells, 72 h",7.5 µM
same,fold resistance relative to parental cell line,"[11]; vs A2780, 4320 min",0.9 fold
